Measured values from ChEMBL document CHEMBL4483862, “Open-source discovery of chemical leads for next-generation chemoprotective antimalarials” (2018).

Tested on: Plasmodium berghei
Assay: Luciferase/luciferin-expressing antifolate-resistant parasites were used to infect a culture of HepG2 cells that were pre-incubated with compounds. Infected hepatocytes emit light due to the luciferase reaction. Assay results are presented as the percent inhibition of light emission compared to control. […]
Format: functional
Conditions: sporozoite; for IC90: read-out: LUCIFERASE INFECTION ASSAY - IC90
[1] = read-out: LUCIFERASE INFECTION ASSAY - IC50

SMILES: Cc1ccc(Cn2c3nc(C#N)c(C#N)nc3c3c(=O)nc(C)[nH]c32)cc1
- IC50 [1]: > 10 µM
- IC90: > 10 µM

SMILES: CN1CCN(C(c2ccccn2)c2c(-c3ccccc3)n(O)c3ccccc23)CC1 (stereo not given)
- IC50 (FFLUC_HILL_SLOPE 1.05, FFLUC_R_SQUARED 0.622, read-out: LUCIFERASE INFECTION ASSAY - IC50): > 10 µM
- IC90: > 10 µM

SMILES: CN(C)S(=O)(=O)c1ccc(SCC(=O)c2ccc(C(C)(C)C)cc2)nc1
- IC50 (PBLUC_HILL_SLOPE 8.24, PBLUC_R_SQUARED 0.558, read-out: LUCIFERASE INFECTION ASSAY - IC50): 3.87 µM
- IC90: 5.05 µM

SMILES: Cc1cc(-c2cn3c(-c4ccncc4)cnc3cn2)cc(C)c1O
- IC50 (PBLUC_HILL_SLOPE 18.9, PBLUC_R_SQUARED 0.365, read-out: LUCIFERASE INFECTION ASSAY - IC50): 8.93 µM
- IC90: 10 µM

SMILES: Clc1c(-c2c(-c3ccccc3)[nH]c3ccccc23)nc2ccccc2c1-c1ccccc1
- IC50 (FFLUC_HILL_SLOPE 0.689, FFLUC_R_SQUARED 0.515, HEPG2TOX_HILL_SLOPE 2.63, HEPG2TOX_R_SQUARED 0.531, PBLUC_HILL_SLOPE 2.99, PBLUC_R_SQUARED 0.588, read-out: LUCIFERASE INFECTION ASSAY - IC50): 4.13 µM
- IC90: 8.61 µM

SMILES: Cc1cccc(Cn2nc(C(C)(C)C)cc2-c2nnc(SCc3c(F)cccc3Cl)n2C2CCCCC2)c1
- IC50 (FFLUC_HILL_SLOPE 2.05, FFLUC_R_SQUARED 0.435, PBLUC_HILL_SLOPE 2, PBLUC_R_SQUARED 0.623, read-out: LUCIFERASE INFECTION ASSAY - IC50): 4.03 µM
- IC90: > 5.98 µM

SMILES: CC(C)CCn1c(Sc2ccc3nnnn3n2)nc2scc(-c3cccs3)c2c1=O
- IC50 [1]: > 10 µM
- IC90: > 10 µM

SMILES: CCCc1cc(=O)n2nc(COc3ccccc3)c(-c3ccccc3)c2[nH]1
- IC50 (HEPG2TOX_HILL_SLOPE 7.2, HEPG2TOX_R_SQUARED 0.777, PBLUC_HILL_SLOPE 5.33, PBLUC_R_SQUARED 0.154, read-out: LUCIFERASE INFECTION ASSAY - IC50): 3.56 µM
- IC90: 5.37 µM

SMILES: c1ccc(CNc2nc3cnc(-c4ccc5ccccc5c4)cc3[nH]2)cc1
- IC50 (HEPG2TOX_HILL_SLOPE 2.88, HEPG2TOX_R_SQUARED 0.737, PBLUC_HILL_SLOPE 2.3, PBLUC_R_SQUARED 0.668, read-out: LUCIFERASE INFECTION ASSAY - IC50): 4.89 µM
- IC90: > 10 µM

SMILES: COc1ccccc1/C=C(/CC(=O)NCc1ccc2c(c1)OCO2)c1nc2ccccc2s1
- IC50 [1]: > 10 µM
- IC90: > 10 µM

SMILES: O=C(OCC(=O)N1N=C(c2ccc(Cl)cc2)CC1c1ccco1)c1[nH]nc2ccccc12 (stereo not given)
- IC50 [1]: > 10 µM
- IC90: > 10 µM

SMILES: O=C(Nc1ccccc1)N1CCc2sccc2C1c1ccc(C(F)(F)F)cc1 (stereo not given)
- IC50 (PBLUC_HILL_SLOPE 6.19, PBLUC_R_SQUARED 0.577, read-out: LUCIFERASE INFECTION ASSAY - IC50): 4.16 µM
- IC90: 5.93 µM

SMILES: CCOc1ccc(S(=O)(=O)Nc2cc3c(C(=O)OC(C)C)c(C)oc3c3ccccc23)cc1
- IC50 (HEPG2TOX_HILL_SLOPE 2.94, HEPG2TOX_R_SQUARED 0.937, PBLUC_HILL_SLOPE 3.2, PBLUC_R_SQUARED 0.642, read-out: LUCIFERASE INFECTION ASSAY - IC50): 1.44 µM
- IC90: 2.86 µM

SMILES: NC(=O)c1ccc(CN(C2CC2)S(=O)(=O)c2ccc3c(c2)CCC3)cc1
- IC50 (PBLUC_HILL_SLOPE 1.27, PBLUC_R_SQUARED 0.0564, read-out: LUCIFERASE INFECTION ASSAY - IC50): > 10 µM
- IC90: > 10 µM

SMILES: Cc1onc(-c2ccccc2)c1-c1csc(-c2ccc(Oc3ccc(C(F)(F)F)cn3)cc2)n1
- IC50 (HEPG2TOX_HILL_SLOPE 12.3, HEPG2TOX_R_SQUARED 0.647, PBLUC_HILL_SLOPE 12.5, PBLUC_R_SQUARED 0.454, read-out: LUCIFERASE INFECTION ASSAY - IC50): 2.37 µM
- IC90: 2.83 µM

SMILES: Cc1cc2ccccn2c1C(=O)c1ccc(-c2ccccc2)cc1
- IC50 (HEPG2TOX_HILL_SLOPE 2.45, HEPG2TOX_R_SQUARED 0.945, PBLUC_HILL_SLOPE 19.6, PBLUC_R_SQUARED 0.427, read-out: LUCIFERASE INFECTION ASSAY - IC50): 3.37 µM
- IC90: 3.77 µM

SMILES: COc1ccc(C)cc1N(CC(=O)Nc1ccccc1C(=O)NCCc1ccccc1)S(=O)(=O)c1ccccc1
- IC50 [1]: > 10 µM
- IC90: > 10 µM

SMILES: Cc1c(C(=O)OCc2coc(-c3cccs3)n2)sc2nc3n(c(=O)c12)CCC3
- IC50 (PBLUC_HILL_SLOPE 4.64, PBLUC_R_SQUARED 0.43, read-out: LUCIFERASE INFECTION ASSAY - IC50): 4.75 µM
- IC90: 7.63 µM

SMILES: COC(=O)c1cc(CSc2nnc(-c3ccc(C)cc3)c(-c3ccc(C)cc3)n2)oc1C
- IC50 (FFLUC_HILL_SLOPE 4.52, FFLUC_R_SQUARED 0.588, read-out: LUCIFERASE INFECTION ASSAY - IC50): > 10 µM
- IC90: > 10 µM

SMILES: CCN(CC(=O)Nc1ccccc1C(F)(F)F)C(=O)Cn1c(=O)cnc2ccccc21
- IC50 [1]: > 10 µM
- IC90: > 10 µM

SMILES: C[C@H]1O[C@@H](O[C@H]2[C@@H](O)C[C@H](O[C@H]3[C@@H](O)C[C@H](O[C@H]4CC[C@@]5(C)[C@H](CC[C@@H]6[C@@H]5C[C@@H](O)[C@]5(C)[C@@H](C7=CC(=O)OC7)CC[C@]65O)C4)O[C@@H]3C)O[C@@H]2C)C[C@H](O)[C@@H]1O [DIGOXIN]
- IC50 [1]: 0.0489 µM
- IC90: 0.117 µM

SMILES: O=C(CSc1nnc(-c2c[nH]c3ccccc23)n1C1CC1)NC1CCN(Cc2ccccc2)C1 (stereo not given)
- IC50 (PBLUC_HILL_SLOPE 3.03, PBLUC_R_SQUARED 0.422, read-out: LUCIFERASE INFECTION ASSAY - IC50): 4.27 µM
- IC90: 8.82 µM

SMILES: Cc1nn(-c2ccccc2)c(Oc2ccccc2)c1/C=C1\C(=O)Nc2ccccc21
- IC50 (HEPG2TOX_HILL_SLOPE 0.509, HEPG2TOX_R_SQUARED 0.727, PBLUC_HILL_SLOPE 1.23, PBLUC_R_SQUARED 0.54, read-out: LUCIFERASE INFECTION ASSAY - IC50): 0.328 µM
- IC90: 1.95 µM

SMILES: CCOC(=O)c1c(Sc2ccccc2)cnn1C(=O)Nc1cccc(Cl)c1
- IC50 (PBLUC_HILL_SLOPE 0.46, PBLUC_R_SQUARED 0.851, read-out: LUCIFERASE INFECTION ASSAY - IC50): > 8.21 µM
- IC90: > 8.21 µM

SMILES: COc1cc(-c2ccnc3n[nH]c(-c4ccccc4)c23)cc(OC)c1OC
- IC50 [1]: 3.13 µM
- IC90: > 10 µM

SMILES: CCC(C)(C)c1ccc(Oc2ccc(NC(=O)CN3CCN(c4ccccc4O)CC3)cc2)cc1
- IC50 (HEPG2TOX_HILL_SLOPE 8.11, HEPG2TOX_R_SQUARED 0.399, read-out: LUCIFERASE INFECTION ASSAY - IC50): > 10 µM
- IC90: > 10 µM

SMILES: NC(COCc1ccccc1)c1csc(NC(=O)Nc2ccccc2-c2ccccc2)n1 (stereo not given)
- IC50 (PBLUC_HILL_SLOPE 5.09, PBLUC_R_SQUARED 0.778, read-out: LUCIFERASE INFECTION ASSAY - IC50): 3.45 µM
- IC90: 5.31 µM

SMILES: COc1cc(NC(=O)N2Cc3cnc(Nc4cccc(N(C)C)c4)nc3C2)cc(OC)c1OC
- IC50 [1]: > 7.1 µM
- IC90: > 7.1 µM

SMILES: COc1ccc(CNCCC(c2ccc(F)cc2)c2ccco2)cc1 (stereo not given)
- IC50 (HEPG2TOX_HILL_SLOPE 73.6, HEPG2TOX_R_SQUARED 0.521, PBLUC_HILL_SLOPE 15.7, PBLUC_R_SQUARED 0.627, read-out: LUCIFERASE INFECTION ASSAY - IC50): 1.06 µM
- IC90: 1.22 µM

SMILES: CC(C)c1cccc(N2CC(C(=O)N3CCC(C(N)=O)CC3)CC2=O)c1 (stereo not given)
- IC50 [1]: > 10 µM
- IC90: > 10 µM

SMILES: S=C(Nc1ccc(Cl)c(Cl)c1)N1c2ccccc2-n2cccc2C1c1cccnc1 (stereo not given)
- IC50 (PBLUC_HILL_SLOPE 3.68, PBLUC_R_SQUARED 0.381, read-out: LUCIFERASE INFECTION ASSAY - IC50): 3.57 µM
- IC90: 6.49 µM

SMILES: Cc1nn(-c2ccc(C(=O)N(Cc3ccccc3)Cc3nc(=O)c4ccccc4[nH]3)cc2)c(C)c1Cl
- IC50 (PBLUC_HILL_SLOPE 3.8, PBLUC_R_SQUARED 0.516, read-out: LUCIFERASE INFECTION ASSAY - IC50): 1.98 µM
- IC90: 3.52 µM

SMILES: Cc1cnc(C(=O)OCC(=O)N(CC(C)C)C2CCS(=O)(=O)C2)cn1 (stereo not given)
- IC50 (HEPG2TOX_HILL_SLOPE 0.131, HEPG2TOX_R_SQUARED 0.272, PBLUC_HILL_SLOPE 1.29, PBLUC_R_SQUARED 0.0136, read-out: LUCIFERASE INFECTION ASSAY - IC50): > 10 µM
- IC90: > 10 µM

SMILES: Cc1oc(-c2ccc(Cl)cc2)cc1C(=O)Nc1cccc(C(F)(F)F)c1
- IC50 [1]: > 8.69 µM
- IC90: > 8.69 µM

SMILES: CCOc1ccc(C(=O)Nc2nc3ccccn3c2C(=O)NC(C)C)cc1
- IC50 (HEPG2TOX_HILL_SLOPE 0.179, HEPG2TOX_R_SQUARED 0.152, PBLUC_HILL_SLOPE 1.27, PBLUC_R_SQUARED 0.525, read-out: LUCIFERASE INFECTION ASSAY - IC50): 1.5 µM
- IC90: 8.41 µM

SMILES: COc1cc(C(=O)NCCCn2ccc3ccccc32)cc(OC)c1C
- IC50 (HEPG2TOX_HILL_SLOPE 8.33, HEPG2TOX_R_SQUARED 0.471, PBLUC_HILL_SLOPE 17.9, PBLUC_R_SQUARED 0.367, read-out: LUCIFERASE INFECTION ASSAY - IC50): 9.65 µM
- IC90: > 10 µM

SMILES: O=C(Nc1nc(-c2ccccn2)cs1)C1CC1c1ccccc1F (stereo not given)
- IC50 (HEPG2TOX_HILL_SLOPE 7.24, HEPG2TOX_R_SQUARED 0.0806, PBLUC_HILL_SLOPE 12.4, PBLUC_R_SQUARED 0.768, read-out: LUCIFERASE INFECTION ASSAY - IC50): 2.99 µM
- IC90: 3.57 µM

SMILES: CNc1snc(C)c1C(=O)Nc1ccc2oc(C(C)C)nc2c1
- IC50 (PBLUC_HILL_SLOPE 15, PBLUC_R_SQUARED 0.678, read-out: LUCIFERASE INFECTION ASSAY - IC50): 3.08 µM
- IC90: 3.56 µM

SMILES: O=C1c2ccccc2C(=O)c2sccc21 [THIOPHENONAPHTHOQUINONE]
- IC50 (PBLUC_HILL_SLOPE 0.947, PBLUC_R_SQUARED 0.583, read-out: LUCIFERASE INFECTION ASSAY - IC50): 2.81 µM
- IC90: > 15.4 µM

SMILES: CCN1C(=O)N(CCc2ccccc2)C2(CCN(Cc3ccc(C)cc3)CC2)C1=O
- IC50 (PBLUC_HILL_SLOPE 4.45, PBLUC_R_SQUARED 0.239, read-out: LUCIFERASE INFECTION ASSAY - IC50): 6.04 µM
- IC90: > 8.14 µM
